The values below come from PMC9516332 (Frontiers in Oncology, 2022).

Common to all, as to assay: Kinase panel profiling at 1 µmol/L (MSA or IMAP), percentage inhibition
Type in all cases: biochemical

The target in test [1] is T1, panel of 255 wild-type kinases (Homo sapiens, UniProt O43781).
T1 sequence (O43781 1-588): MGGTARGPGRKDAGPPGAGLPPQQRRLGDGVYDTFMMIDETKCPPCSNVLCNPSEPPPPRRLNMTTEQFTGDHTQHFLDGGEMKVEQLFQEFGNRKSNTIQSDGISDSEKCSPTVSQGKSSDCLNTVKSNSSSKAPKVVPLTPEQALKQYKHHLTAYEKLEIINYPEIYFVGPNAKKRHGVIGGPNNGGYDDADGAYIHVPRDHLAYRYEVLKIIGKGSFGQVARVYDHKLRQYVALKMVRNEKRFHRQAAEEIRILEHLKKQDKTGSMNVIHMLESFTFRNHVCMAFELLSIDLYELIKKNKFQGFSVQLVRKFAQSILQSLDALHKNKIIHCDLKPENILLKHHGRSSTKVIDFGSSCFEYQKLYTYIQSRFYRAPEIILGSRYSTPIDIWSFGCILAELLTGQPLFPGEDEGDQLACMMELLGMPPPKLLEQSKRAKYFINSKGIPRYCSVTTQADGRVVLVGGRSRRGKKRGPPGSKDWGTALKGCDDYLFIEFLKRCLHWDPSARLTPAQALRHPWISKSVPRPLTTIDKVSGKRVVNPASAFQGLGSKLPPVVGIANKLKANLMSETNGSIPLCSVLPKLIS
Conditions: kinase DYRK3; 1 µmol/L single concentration; read-out: %-inhibition at 1 µmol/L, DYRK3.

For test [2], the target named is panel of 255 wild-type kinases (Homo sapiens, UniProt P00533). The note with it: kinase EGFR; 1 µmol/L single concentration; read-out: %-inhibition at 1 µmol/L, EGFR.
In test [3] the target is panel of 255 wild-type kinases (Homo sapiens, UniProt P06239). Conditions: kinase LCK; 1 µmol/L single concentration; read-out: %-inhibition at 1 µmol/L, LCK.
The target in test [4] is panel of 255 wild-type kinases (Homo sapiens, UniProt P08069). Conditions: kinase IGF1R; 1 µmol/L single concentration; read-out: %-inhibition at 1 µmol/L, IGF1R.
For test [5], the target named is panel of 255 wild-type kinases (Homo sapiens, UniProt P08631). The note with it: kinase HCK; 1 µmol/L single concentration; read-out: %-inhibition at 1 µmol/L, HCK.
Test [6] concerns the target panel of 255 wild-type kinases (Homo sapiens, UniProt P11309). The note with it: kinase PIM1; 1 µmol/L single concentration; read-out: %-inhibition at 1 µmol/L, PIM1.
The target of test [7] is T2, panel of 255 wild-type kinases (Homo sapiens, UniProt P30530).
T2 sequence (P30530 26-894): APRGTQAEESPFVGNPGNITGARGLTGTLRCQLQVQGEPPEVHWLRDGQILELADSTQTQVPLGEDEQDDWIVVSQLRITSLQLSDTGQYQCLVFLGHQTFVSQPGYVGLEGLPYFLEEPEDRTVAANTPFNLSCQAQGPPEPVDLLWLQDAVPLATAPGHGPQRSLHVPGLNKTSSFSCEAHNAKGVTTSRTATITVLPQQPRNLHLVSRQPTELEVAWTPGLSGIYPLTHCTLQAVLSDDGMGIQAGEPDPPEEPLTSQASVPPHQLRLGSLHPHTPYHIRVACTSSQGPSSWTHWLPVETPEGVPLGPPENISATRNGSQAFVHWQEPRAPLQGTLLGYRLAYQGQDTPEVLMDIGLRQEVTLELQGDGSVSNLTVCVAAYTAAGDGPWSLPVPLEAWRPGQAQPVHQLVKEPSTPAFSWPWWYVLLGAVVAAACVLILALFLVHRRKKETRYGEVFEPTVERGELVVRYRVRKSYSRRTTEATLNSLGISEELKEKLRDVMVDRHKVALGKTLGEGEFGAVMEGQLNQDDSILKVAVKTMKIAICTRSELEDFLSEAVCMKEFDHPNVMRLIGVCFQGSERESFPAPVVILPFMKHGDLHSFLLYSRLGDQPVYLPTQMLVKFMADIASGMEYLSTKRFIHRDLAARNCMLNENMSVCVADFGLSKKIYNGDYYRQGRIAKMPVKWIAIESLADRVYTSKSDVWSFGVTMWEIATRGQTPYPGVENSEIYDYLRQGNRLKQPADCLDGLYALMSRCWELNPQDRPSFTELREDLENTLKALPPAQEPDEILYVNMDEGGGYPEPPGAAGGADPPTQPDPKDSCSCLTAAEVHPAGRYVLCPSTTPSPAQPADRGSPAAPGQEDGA
The note with it: AXL kinase assay; 1 µmol/L single concentration; read-out: %-inhibition AXL.

For test [8], the target named is panel of 255 wild-type kinases (Homo sapiens, UniProt P42685). Conditions: kinase FRK; 1 µmol/L single concentration; read-out: %-inhibition at 1 µmol/L, FRK.
In test [9] the target is panel of 255 wild-type kinases (Homo sapiens, UniProt P45984). Conditions: kinase JNK2; 1 µmol/L single concentration; read-out: %-inhibition at 1 µmol/L, JNK2.
For test [10], the target named is panel of 255 wild-type kinases (Homo sapiens, UniProt Q04759). Conditions: kinase PKCθ; 1 µmol/L single concentration; read-out: %-inhibition at 1 µmol/L, PKCθ.
The target of test [11] is panel of 255 wild-type kinases (Homo sapiens, UniProt Q5VT25). Conditions: MRCKα; 1 µmol/L single concentration; read-out: %-inhibition, MRCKα.
For test [12], the target named is panel of 255 wild-type kinases (Homo sapiens, UniProt Q96SB4). Conditions: kinase SRPK1; 1 µmol/L single concentration; read-out: %-inhibition at 1 µmol/L, SRPK1.
Test [13] concerns the target panel of 255 wild-type kinases (Homo sapiens, UniProt Q9BUB5). Conditions: MNK1; 1 µmol/L single concentration; read-out: %-inhibition, MNK1.
Test [14] deals with panel of 255 wild-type kinases (Homo sapiens, UniProt Q9H1R3). Conditions: kinase skMLCK; 1 µmol/L single concentration; read-out: %-inhibition at 1 µmol/L, skMLCK.
Test [15] addresses panel of 255 wild-type kinases (Homo sapiens, UniProt Q9UQM7). Conditions: CaMK2α kinase assay; 1 µmol/L single concentration; read-out: %-inhibition CaMK2α.

In the case of `Cc1nc(NC(=O)N2CCC[C@H]2C(N)=O)sc1-c1ccnc(C(C)(C)C(F)(F)F)c1` [alpelisib], the inhibition at 1 µM is 10% in test [1]; 2% in [2]; 5% in test [3]; -0.261% in test [4]; 4.56% in [5]; 4% in test [6]. Moreover, the inhibition at 1 µM in [7] was -3.59%; in test [8] it was -2.26%; in test [9] it was 0.494%; in test [10] it was -0.212%; in test [11], -2%; in test [12], 6%. Also, the inhibition at 1 µM in test [13] was 2.72%; in test [14], -3.8%; in test [15], -1.21%.

Take `Cn1cc(-c2cc3c(N4CCN(c5ncc([C@@](C)(N)c6ccc(F)cc6)cn5)CC4)ncnn3c2)cn1` [avapritinib]: the inhibition at 1 µM in [1] came out at 49%; in test [2] it was 25%; in test [3] it was 92%; in [4], 3.41%; in test [5], 52%; in [6] it was 24%. For the same compound, the inhibition at 1 µM was 37% in test [7]; 25% in [8]; 1.1% in [9]; 2.6% in test [10]; 4% in test [11]; -12% in [12]. Besides, the figures for the inhibition at 1 µM in [13], in test [14] and in test [15] were 72%, 1.29% and -2.45%, respectively.

With `CN1CCN(c2ccc(C(=O)Nc3n[nH]c4ccc(Cc5cc(F)cc(F)c5)cc34)c(NC3CCOCC3)c2)CC1` [entrectinib], the inhibition at 1 µM in test [1] was -3%; in test [4] it was 98%; in test [5], 91%; in [6], -6%; in test [7], 96%; in [8], 96%. Further, the inhibition at 1 µM was 7% in test [9]; 10% in [10]; -3.42% in test [11]; 2.16% in test [12]; -1% in test [13]; 1.33% in [14]. Moreover, the inhibition at 1 µM in [15] worked out at 12%.

For the compound `CCN1CCN(c2ccc(Nc3cc(N(C)C(=O)Nc4c(Cl)c(OC)cc(OC)c4Cl)ncn3)cc2)CC1` [infigratinib], the inhibition at 1 µM in [1] was -10%; in test [3] it was 91%; in [4], 18%; in test [5] it was 22%; in test [6] it was -2.33%; in test [7], 30%. Besides, the inhibition at 1 µM in test [9] is 2.8%; in test [10], -3%; in [11], 0.933%; in test [12], -0.85%; in [13], -1.75%; in test [14] it was -3%. Moreover, the inhibition at 1 µM in [15] was -1.22%.

Turning to `C[C@H]1Oc2cc(cnc2N)-c2c(nn(C)c2C#N)CN(C)C(=O)c2ccc(F)cc21` [lorlatinib], the inhibition at 1 µM is -3.41% in [1]; 9.49% in test [2]; 24% in test [3]; 79% in test [4]; 42% in test [5]; 8% in [6]. Moreover, the inhibition at 1 µM is 8% in test [7]; 3.24% in test [9]; 3% in test [10]; -6% in test [11]; 5.65% in [12]; 6% in [13]. The results for the inhibition at 1 µM in [14] and in test [15] were -0.456% and 3.76%, respectively.

`FC(F)(F)c1ccc(CNc2ccc(Cc3c[nH]c4ncc(Cl)cc34)cn2)cn1` [pexidartinib]: the inhibition at 1 µM in test [1] was 8%; in test [3] it was 51%; in test [4], 17%; in [5], 3%; in test [6] it was -3.77%; in [7], 39%. Also, the inhibition at 1 µM in test [8] is 5.44%; in [9], 2.5%; in [10], 3.27%; in test [11], 0.771%; in test [12], -20%; in [13], 61%. Moreover, the inhibition at 1 µM is 12% in test [14] and -4% in test [15].

Turning to `C=CC(=O)N1CCC([C@@H]2CCNc3c(C(N)=O)c(-c4ccc(Oc5ccccc5)cc4)nn32)CC1` [zanubrutinib], the inhibition at 1 µM in test [1] is -6%; in test [2], 92%; in test [3], 67%; in [4], 3%; in test [6], -11%; in test [7], 4.56%. Moreover, the inhibition at 1 µM was 82% in test [8]; -1.18% in test [9]; -3% in test [10]; -0.931% in [11]; -6% in test [12]; -4.39% in [13]. Further, the values for the inhibition at 1 µM in [14] and in test [15] were -2.7% and 2%, respectively.
